Data as given in ChEMBL document CHEMBL1201862, “PubChem BioAssay data set” (2004).
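Protocol summary: plate cells (96-well), add compound at 5 concentrations, incubate 48 h, interpolate endpoints linearly. GI50 is the concentration that inhibits growth by half.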 Calls of active or inactive are those of the source. No stated cut-off is given here; in the data, active = GI50 up to about 1.1 µM and inactive = higher.

What was measured:
Assay in all cases: inhibition of tumour cell growth, NCI panel, 48 h
SK-OV-3 = system: SK-OV-3
SNB-19 = system: SNB-19
MCF7 = system: MCF7
HT-29 = system: HT-29
MOLT-4 = system: MOLT-4
IGROV-1 = system: IGROV-1
HCT-15 = system: HCT-15
DLD-1 = system: DLD-1
HOP-62 = system: HOP-62
SNB-78 = system: SNB-78
SR = system: SR
RXF 631 = system: RXF 631
OVCAR-5 = system: OVCAR-5
HOP-92 = system: HOP-92
NCI-H226 = system: NCI-H226
SK-MEL-28 = system: SK-MEL-28
SNB-75 = system: SNB-75
MDA-MB-231 = system: MDA-MB-231
UACC-62 = system: UACC-62
RPMI-8226 = system: RPMI-8226
PC-3 = system: PC-3
M14 = system: M14
HCC 2998 = system: HCC 2998
NCI-H522 = system: NCI-H522
HL-60 = system: HL-60
RXF 393 = system: RXF 393
SF-539 = system: SF-539
SN12C = system: SN12C
SK-MEL-2 = system: SK-MEL-2
NCI-H23 = system: NCI-H23
KM-20L2 = system: KM-20L2
KM12 = system: KM12
ACHN = system: ACHN
Malme-3M = system: Malme-3M
BT-549 = system: BT-549
MDA-MB-435 = system: MDA-MB-435
CCRF-CEM = system: CCRF-CEM
UACC-257 = system: UACC-257
UO-31 = system: UO-31
COLO 205 = system: COLO 205
TK-10 = system: TK-10
SF-295 = system: SF-295
HCT-116 = system: HCT-116
786-0 = system: 786-0
LOX IMVI = system: LOX IMVI
U-251 = system: U-251
SW-620 = system: SW-620
OVCAR-8 = system: OVCAR-8
K562 = system: K562
Hs-578T = system: Hs-578T
OVCAR-4 = system: OVCAR-4
MDA-N = system: MDA-N
DU-145 = system: DU-145
SF-268 = system: SF-268
T47D = system: T47D
CAKI-1 = system: CAKI-1
A498 = system: A498
NCI/ADR-RES = system: NCI/ADR-RES
LXFL 529 = system: LXFL 529
EKVX = system: EKVX
HOP-18 = system: HOP-18
NCI-H460 = system: NCI-H460
A549 = system: A549
SK-MEL-5 = system: SK-MEL-5
XF498 = system: XF498
OVCAR-3 = system: OVCAR-3
M19-MEL = system: M19-MEL

## CCCCCCC/C=C1\CCC(CN(C)C)C1=O (centres undefined)
SK-OV-3
  GI50: 23.7 µM (inactive)
SNB-19
  GI50: 16.9 µM (inactive)
MCF7
  GI50: 3.24 µM (inactive)
HT-29
  GI50: 14.6 µM (inactive)
MOLT-4
  GI50: 2.47 µM (inactive)
IGROV-1
  GI50: 19.1 µM (inactive)
HCT-15
  GI50: 8.36 µM
DLD-1
  GI50: 7.1 µM (inactive)
HOP-62
  GI50: 17.6 µM (inactive)
SNB-78
  GI50: 16.4 µM (inactive)
SR
  GI50: 3.47 µM (inactive)
RXF 631
  GI50: 10.9 µM (inactive)
OVCAR-5
  GI50: 19.8 µM (inactive)
HOP-92
  GI50: 17.3 µM (inactive)
NCI-H226
  GI50: 22.4 µM (inactive)
SK-MEL-28
  GI50: 16.9 µM (inactive)
SNB-75
  GI50: 18.5 µM (inactive)
MDA-MB-231
  GI50: 3.2 µM (inactive)
UACC-62
  GI50: 14.6 µM (inactive)
RPMI-8226
  GI50: 0.968 µM (active)
PC-3
  GI50: 14.5 µM (inactive)
M14
  GI50: 9.71 µM (inactive)
HCC 2998
  GI50: 17.7 µM (inactive)
NCI-H522
  GI50: 5.48 µM (inactive)
HL-60
  GI50: 3.02 µM (inactive)
RXF 393
  GI50: 5.93 µM (inactive)
SF-539
  GI50: 16.6 µM (inactive)
SN12C
  GI50: 9.1 µM (inactive)
SK-MEL-2
  GI50: 15.9 µM (inactive)
NCI-H23
  GI50: 16.4 µM (inactive)
KM-20L2
  GI50: 19.1 µM (inactive)
KM12
  GI50: 4.07 µM (inactive)
ACHN
  GI50: 17.6 µM (inactive)
Malme-3M
  GI50: 10.8 µM (inactive)
BT-549
  GI50: 14.7 µM (inactive)
MDA-MB-435
  GI50: 5.66 µM (inactive)
CCRF-CEM
  GI50: 3.03 µM (inactive)
UACC-257
  GI50: 15.1 µM (inactive)
UO-31
  GI50: 15.6 µM (inactive)
COLO 205
  GI50: 10.2 µM (inactive)
TK-10
  GI50: 7.48 µM (inactive)
SF-295
  GI50: 16.3 µM (inactive)
HCT-116
  GI50: 7.23 µM (inactive)
786-0
  GI50: 1.76 µM (inactive)
LOX IMVI
  GI50: 6.85 µM (inactive)
U-251
  GI50: 17.5 µM (inactive)
SW-620
  GI50: 6.19 µM (inactive)
OVCAR-8
  GI50: 9.77 µM (inactive)
K562
  GI50: 2.83 µM (inactive)
Hs-578T
  GI50: 3.88 µM (inactive)
OVCAR-4
  GI50: 16.6 µM (inactive)
MDA-N
  GI50: 13.2 µM (inactive)
DU-145
  GI50: 14.7 µM (inactive)
SF-268
  GI50: 17.4 µM (inactive)
T47D
  GI50: 2.98 µM (inactive)
CAKI-1
  GI50: 16.3 µM (inactive)
A498
  GI50: 19.9 µM (inactive)
NCI/ADR-RES
  GI50: 2.61 µM (inactive)
LXFL 529
  GI50: 7.78 µM (inactive)
EKVX
  GI50: 15.5 µM (inactive)
HOP-18
  GI50: 17.2 µM (inactive)
NCI-H460
  GI50: 19.1 µM (inactive)
A549
  GI50: 22.6 µM (inactive)
SK-MEL-5
  GI50: 18.7 µM (inactive)
XF498
  GI50: 20.5 µM (inactive)
OVCAR-3
  GI50: 9.38 µM (inactive)

## COc1cccc2c1C(=O)c1c(O)c3c(c(O)c1C2=O)C[C@@](O)(C(=O)CO)C[C@@H]3OC1CC(N)CC(C)O1 (some centres undefined)
SK-OV-3
  GI50: 0.0521 µM (active)
MCF7
  GI50: 0.024 µM (active)
HT-29
  GI50: 0.035 µM (active)
DLD-1
  GI50: 0.092 µM (active)
HOP-62
  GI50: 0.0221 µM (active)
SNB-78
  GI50: 0.128 µM (active)
SR
  GI50: 0.00266 µM (active)
M19-MEL
  GI50: 0.0314 µM (active)
RXF 631
  GI50: 0.0301 µM (active)
OVCAR-5
  GI50: 0.074 µM (active)
HOP-92
  GI50: 0.0416 µM (active)
SNB-75
  GI50: 0.0402 µM (active)
MDA-MB-231
  GI50: 0.0612 µM (active)
UACC-62
  GI50: 0.0254 µM (active)
PC-3
  GI50: 0.027 µM (active)
M14
  GI50: 0.0803 µM (active)
HCC 2998
  GI50: 0.0706 µM (active)
NCI-H522
  GI50: 0.038 µM (active)
SN12C
  GI50: 0.0299 µM (active)
KM-20L2
  GI50: 0.0695 µM (active)
Malme-3M
  GI50: 0.0284 µM (active)
BT-549
  GI50: 0.0283 µM (active)
CCRF-CEM
  GI50: 0.0267 µM (active)
UACC-257
  GI50: 0.051 µM (active)
COLO 205
  GI50: 0.042 µM (active)
SF-295
  GI50: 0.0239 µM (active)
786-0
  GI50: 0.0247 µM (active)
OVCAR-4
  GI50: 0.046 µM (active)
MDA-N
  GI50: 0.0955 µM (active)
DU-145
  GI50: 0.0267 µM (active)
SF-268
  GI50: 0.0451 µM (active)
T47D
  GI50: 0.0233 µM (active)
NCI/ADR-RES
  GI50: 3.67 µM (inactive)
LXFL 529
  GI50: 0.0462 µM (active)
EKVX
  GI50: 0.0847 µM (active)
HOP-18
  GI50: 0.0348 µM (active)
SK-MEL-5
  GI50: 0.0371 µM (active)
OVCAR-3
  GI50: 0.0547 µM (active)
